The test system of experiment [1] is Staphylococcus epidermidis.
For experiment [2], the system named is Staphylococcus epidermidis. The source holds these as a separate data set.
Experiment [3] has as its system Cutibacterium acnes. The experiment can be described thus: Antibacterial activity against Propionibacterium acnes by CLSI M11-A7 method. Format: functional.
Experiment [4] concerns Prevotella sp. The experiment can be described thus: Antibacterial activity against Prevotella sp. assessed as percent susceptible isolates by CLSI M11-A7 method. Format: functional.
The test system of experiment [5] is Fusobacterium sp. The experiment can be described thus: Antibacterial activity against Fusobacterium sp. by CLSI M11-A7 method. It is filed as functional.
The subject of experiment [6] is Bacteroides fragilis. The experiment can be described thus: Antibacterial activity against Bacteroides fragilis assessed as percent susceptible isolates by CLSI M11-A7 method. Format: functional.
Experiment [7] deals with Peptostreptococcus sp. The experiment can be described thus: Antibacterial activity against Peptostreptococcus sp. assessed as percent susceptible isolates by CLSI M11-A7 method. Format: functional.
Experiment [8] concerns Peptostreptococcus sp. The experiment can be described thus: Antibacterial activity against Peptostreptococcus sp. by CLSI M11-A7 method. It is filed as functional.
Experiment [9] deals with Bacteroides fragilis. The experiment can be described thus: Antibacterial activity against Bacteroides fragilis by CLSI M11-A7 method. It is filed as functional.
In experiment [10] the test system is Prevotella sp. The experiment can be described thus: Antibacterial activity against Prevotella sp. by CLSI M11-A7 method. It is filed as functional.
Experiment [11] has as its system Clostridium perfringens. The experiment can be described thus: Antibacterial activity against Clostridium perfringens by CLSI M11-A7 method. Format: functional.
Experiment [12] concerns Cutibacterium acnes. The experiment can be described thus: Antibacterial activity against Propionibacterium acnes assessed as percent susceptible isolates by CLSI M11-A7 method. It is filed as functional.
Experiment [13] relates to Fusobacterium sp. The experiment can be described thus: Antibacterial activity against Fusobacterium sp. assessed as percent susceptible isolates by CLSI M11-A7 method. It is filed as functional.

≈ marks a conversion by molar mass, not a printed value. Calls of active or inactive are those of the source. The calls are words filed in the database; no cut-off is given here. A value given as a limit tells only on which side of the number the result lay.

As to `O=C(O)c1cn(C2CC2)c2cc(N3CCNCC3)c(F)cc2c1=O`, the MIC90 result in experiment [1] and in experiment [2] was “inactive” throughout.
Turning to `Cc1ncc([N+](=O)[O-])n1CCO` [METRONIDAZOLE], the MIC in experiment [3] was greater than 16 µg/mL; in experiment [9], 2 µg/mL (≈ 11.7 µM). In addition, the MIC50 is greater than 16 µg/mL in experiment [3]; 0.25 µg/mL (≈ 1.46 µM) in experiment [5]; 0.5 µg/mL (≈ 2.92 µM) in experiment [8]; 2 µg/mL (≈ 11.7 µM) in experiment [9]; 4 µg/mL (≈ 23.4 µM) in experiment [10]; 2 µg/mL (≈ 11.7 µM) in experiment [11]. Moreover, the MIC90 in experiment [3] was greater than 16 µg/mL; in [5] it was 1 µg/mL (≈ 5.84 µM); in [8] it was 1 µg/mL (≈ 5.84 µM); in [9], 2 µg/mL (≈ 11.7 µM); in experiment [10], 4 µg/mL (≈ 23.4 µM); in experiment [11], 4 µg/mL (≈ 23.4 µM). The Activity in experiment [4] turned out to be 100%; in experiment [6] it was 100%; in experiment [7] it was 98.1%; in [12] it was 0%; in experiment [13], 100%.
As to `CCC[C@@H]1C[C@@H](C(=O)N[C@@H]([C@H]2O[C@H](SC)[C@H](O)[C@@H](O)[C@H]2O)[C@H](C)Cl)N(C)C1` [CLINDAMYCIN], the MIC50 in experiment [3] is 0.06 µg/mL (≈ 0.141 µM); in [5] it was 0.06 µg/mL (≈ 0.141 µM); in [8] it was 0.25 µg/mL (≈ 0.588 µM); in [9], 2 µg/mL (≈ 4.71 µM); in [10], no more than 0.03 µg/mL; in experiment [11] it was 2 µg/mL (≈ 4.71 µM). Moreover, the MIC90 in experiment [3] was 0.12 µg/mL (≈ 0.282 µM); in experiment [5] it was 2 µg/mL (≈ 4.71 µM); in experiment [8] it was greater than 8 µg/mL; in [9], greater than 8 µg/mL; in [10], greater than 8 µg/mL; in experiment [11], 4 µg/mL (≈ 9.41 µM). Also, the Activity in experiment [4] was 85%; in experiment [6] it was 65%; in [7], 88.5%; in experiment [12] it was 100%; in experiment [13], 95.2%. In addition, the MIC is 0.06 µg/mL (≈ 0.141 µM) in experiment [5] and no more than 0.03 µg/mL in experiment [10].
